Laboratory results taken from US7138361B2, “Herbicidal heterocycles” (E. I. du Pont de Nemours and Company, priority 2000, dated 2006).

Assays:
Format in all cases: in vivo
[1] = tested on: velvetleaf (Abutilon theophrasti); test: Test B postemergence; details: 13 to 15 days
Procedure, shortened: (§1)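 Ratings on a 0 to 100 visual scale (100 complete control) compare treated plants with controls 13 to 15 days after application. Treatments were pre- or postemergence sprays of compound in non-phytotoxic solvent with surfactant.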

[2] = tested on: pigweed (Amaranthus retroflexus); test: Test B postemergence; details: 13 to 15 days
Procedure, shortened: as §1

[3] = tested on: morning glory (Ipomoea hederacea); test: Test B postemergence; details: 13 to 15 days
Procedure, shortened: as §1

[4] = tested on: lambsquarters (Chenopodium album); test: Test B postemergence; details: 13 to 15 days
Procedure, shortened: as §1

[5] = tested on: Surinam grass (Brachiaria decumbens); test: Test B postemergence; details: 13 to 15 days
Procedure, shortened: as §1

[6] = tested on: cocklebur (Xanthium strumarium); test: Test B postemergence; details: 13 to 15 days
Procedure, shortened: as §1

[7] = tested on: crabgrass (Digitaria sanguinalis); test: Test B postemergence; details: 13 to 15 days
Procedure, shortened: as §1

[8] = tested on: blackgrass (Alopecurus myosuroides); test: Test B postemergence; details: 13 to 15 days
Procedure, shortened: as §1

[9] = tested on: giant foxtail (Setaria faberii); test: Test B postemergence; details: 13 to 15 days
Procedure, shortened: as §1

[10] = tested on: wheat (Triticum aestivum); test: Test B postemergence; details: 13 to 15 days
Procedure, shortened: as §1

[11] = tested on: barnyardgrass (Echinochloa crus-galli); test: Test B postemergence; details: 13 to 15 days
Procedure, shortened: as §1

wild oat (Avena fatua) = test: Test B postemergence; details: 13 to 15 days
Procedure, shortened: as §1

corn (Zea mays) [12] = test: Test B postemergence; details: 13 to 15 days
Procedure, shortened: as §1

[13] = tested on: velvetleaf (Abutilon theophrasti); test: Test B preemergence
Procedure, shortened: as §1

[14] = tested on: pigweed (Amaranthus retroflexus); test: Test B preemergence
Procedure, shortened: as §1

[15] = tested on: morning glory (Ipomoea hederacea); test: Test B preemergence
Procedure, shortened: as §1

[16] = tested on: Surinam grass (Brachiaria decumbens); test: Test B preemergence
Procedure, shortened: as §1

[17] = tested on: cocklebur (Xanthium strumarium); test: Test B preemergence
Procedure, shortened: as §1

[18] = tested on: crabgrass (Digitaria sanguinalis); test: Test B preemergence
Procedure, shortened: as §1

[19] = tested on: giant foxtail (Setaria faberii); test: Test B preemergence
Procedure, shortened: as §1

rice (Oryza saliva) = test: Test B preemergence
Procedure, shortened: as §1

[20] = tested on: barnyardgrass (Echinochloa crus-galli); test: Test B preemergence
Procedure, shortened: as §1

corn (Zea mays) [21] = test: Test B preemergence
Procedure, shortened: as §1

[22] = tested on: smallflower flatsedge (Cyperus difformis); test: Test C flooded paddy test; details: for Flatsedge plant response rating: Flooded Paddy, scale 0 to 100, 0 no effect, 100 complete control; for Plant response rating, Flatsedge: flooded paddy test, scale 0 to 100 (0 no effect, 100 complete control)
Procedure, shortened: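 Flooded paddy, 2-leaf stage at treatment. Readout: visual % control vs untreated, 0–100, at 12–14 d in greenhouse.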

[23] = tested on: lambsquarters (Chenopodium album); test: Test B preemergence
Procedure, shortened: as §1

[24] = Rate 125 g/ha, scale 0 (no effect) to 100 (complete control)
[25] = Rate 500 g/ha, scale 0 to 100, 0 is no effect, 100 is complete control
[26] = Preemergence, Rate 500 g/ha, scale 0 to 100, 0 no effect, 100 complete control
[27] = preemergence, Rate 125 g/ha, scale 0 to 100, 0 no effect, 100 complete control
[28] = preemergence, Rate 125 g/ha, scale of 0 to 100 where 0 is no effect and 100 is complete control, 13 to 15 days

## CCC(CC)c1ccn(C2SCN(c3cccc(C(F)(F)F)c3)C2=O)n1 (centres unmarked) [Compound 21]
[1]; [24]
  Plant response rating, Velvetleaf: 20
[1]; [25]
  Plant response rating, Velvetleaf: 60
[2]; [24]
  Plant response rating, Pigweed: 70
[2]; [25]
  Plant response rating, Pigweed: 90
[3]; [24]
  Plant response rating, Morningglory: 70
[3]; [25]
  Plant response rating, Morningglory: 80
[4]; [24]
  Plant response rating, Lambsquarters: 100
[4]; [25]
  Plant response rating, Lambsquarters: 100
[5]; [24]
  Plant response rating, Surinam grass: 0
[5]; [25]
  Plant response rating, Surinam grass: 0
[6]; [24]
  Plant response rating, Cocklebur: 70
[6]; [25]
  Plant response rating, Cocklebur: 80
[7]; [24]
  Plant response rating, Crabgrass: 30
[7]; [25]
  Plant response rating, Crabgrass: 70
[8]; [24]
  Plant response rating, Blackgrass: 0
[8]; [25]
  Plant response rating, Blackgrass: 0
[9]; [24]
  Plant response rating, Foxtail, Giant: 20
[9]; [25]
  Plant response rating, Foxtail, Giant: 60
[10]; [24]
  Plant response rating, Wheat: 0
[10]; [25]
  Plant response rating, Wheat: 0
[11]; [24]
  Plant response rating, Barnyardgrass: 90
[11]; [25]
  Plant response rating, Barnyardgrass: 100
Wild oat (Avena fatua); [24]
  Plant response rating, Wild Oat: 0
Wild oat (Avena fatua); [25]
  Plant response rating, Wild Oat: 0
Corn (Zea mays) [12]; [24]
  Plant response rating, Corn: 0
Corn (Zea mays) [12]; [25]
  Plant response rating, Corn: 0
[13]; [26]
  Plant response rating, Velvetleaf: 0
[13]; [27]
  Plant response rating, Velvetleaf: 0
[14]; [26]
  Plant response rating, Pigweed: 90
[14]; [27]
  Plant response rating, Pigweed: 0
[15]; [26]
  Plant response rating, Morningglory: 100
[15]; [27]
  Plant response rating, Morningglory: 90
[16]; [26]
  Plant response rating, Surinam grass: 20
[16]; [27]
  Plant response rating, Surinam grass: 20
[17]; [26]
  Plant response rating, Cocklebur: 0
[18]; [26]
  Plant response rating, Crabgrass: 100
[18]; [27]
  Plant response rating, Crabgrass: 100
[19]; [26]
  Plant response rating, Foxtail, Giant: 100
[19]; [27]
  Plant response rating, Foxtail, Giant: 70
Rice (Oryza saliva); [26]
  Plant response rating, Rice: 0
Rice (Oryza saliva); [27]
  Plant response rating, Rice: 0
[20]; [26]
  Plant response rating, Barnyardgrass: 100
[20]; [27]
  Plant response rating, Barnyardgrass: 60
Corn (Zea mays) [21]; [26]
  Plant response rating, Corn: 0
Corn (Zea mays) [21]; [27]
  Plant response rating, Corn: 0
[22]; Rate 250 g/ha
  Flatsedge plant response rating: 90
[22]; Rate 500 g/ha
  Flatsedge plant response rating: 100
[22]; Rate 62 g/ha
  Plant response rating, Flatsedge: 80
[22]; Rate 125 g/ha
  Plant response rating, Flatsedge: 90

## CC(C)(C)c1ccn(C2CCN(c3cccc([S+]([O-])C(F)(F)F)c3)C2=O)n1 (centres unmarked) [Compound 101]
[1]; [25]
  Plant response rating, Velvetleaf: 0
[2]; [25]
  Plant response rating, Pigweed: 0
[3]; [25]
  Plant response rating, Morningglory: 0
[4]; [25]
  Plant response rating, Lambsquarters: 0
[5]; [24]
  Plant response rating, Surinam grass: 0
[5]; [25]
  Plant response rating, Surinam grass: 0
[7]; [24]
  Plant response rating, Crabgrass: 0
[7]; [25]
  Plant response rating, Crabgrass: 0
[8]; [24]
  Plant response rating, Blackgrass: 0
[8]; [25]
  Plant response rating, Blackgrass: 0
[9]; [24]
  Plant response rating, Foxtail, Giant: 0
[9]; [25]
  Plant response rating, Foxtail, Giant: 0
[10]; [25]
  Plant response rating, Wheat: 0
[11]; [24]
  Plant response rating, Barnyardgrass: 0
[11]; [25]
  Plant response rating, Barnyardgrass: 0
Wild oat (Avena fatua); [25]
  Plant response rating, Wild Oat: 0
Corn (Zea mays) [12]; [24]
  Plant response rating, Corn: 0
Corn (Zea mays) [12]; [25]
  Plant response rating, Corn: 0
[13]; [26]
  Plant response rating, Velvetleaf: 0
[13]; [28]
  Plant response rating, Velvetleaf: 0
[14]; [26]
  Plant response rating, Pigweed: 100
[14]; [28]
  Plant response rating, Pigweed: 40
[15]; [26]
  Plant response rating, Morningglory: 0
[15]; [28]
  Plant response rating, Morningglory: 0
[23]; [26]
  Plant response rating, Lambsquarters: 100
[23]; [28]
  Plant response rating, Lambsquarters: 100
[16]; [26]
  Plant response rating, Surinam grass: 80
[16]; [28]
  Plant response rating, Surinam grass: 0
[17]; [26]
  Plant response rating, Cocklebur: 0
[17]; [28]
  Plant response rating, Cocklebur: 0
[18]; [26]
  Plant response rating, Crabgrass: 100
[18]; [28]
  Plant response rating, Crabgrass: 90
[19]; [26]
  Plant response rating, Foxtail, Giant: 100
[19]; [28]
  Plant response rating, Foxtail, Giant: 0
Rice (Oryza saliva); [28]
  Plant response rating, Rice: 0
[20]; [26]
  Plant response rating, Barnyardgrass: 100
[20]; [28]
  Plant response rating, Barnyardgrass: 30
Corn (Zea mays) [21]; [26]
  Plant response rating, Corn: 70
Corn (Zea mays) [21]; [28]
  Plant response rating, Corn: 0
[22]; Rate 250 g/ha
  Flatsedge plant response rating: 90
[22]; Rate 500 g/ha
  Flatsedge plant response rating: 100
[22]; Rate 62 g/ha
  Plant response rating, Flatsedge: 20
[22]; Rate 125 g/ha
  Plant response rating, Flatsedge: 90
